Data from paper PMC8359378 (British Journal of Clinical Pharmacology, 2021).
Marks after values point to notes of the source that are not given here.

What was measured:
[1] = system: prothrombin time [PT], international normalised ratio [INR]; assay: prothrombin time; format: in vivo, human; conditions: any of the dose levels tested in Part A or Part B
[2] = system: healthy subjects; assay: safety and tolerability; format: in vivo, human
[3] = Part A, single dose 1 mg, fasted
[4] = Part A, single dose 5 mg, fasted
[5] = Part A, single dose 20 mg, fasted
[6] = Part A, single dose 80 mg, fasted
[7] = Part A, single dose 150 mg, fasted
[8] = Part A, single dose 300 mg, fasted
[9] = Part B, 80 mg QD for 14 days, fed

Structure (SMILES): Nc1ccc(-c2nc([C@H]3CCc4cc(-c5cc(Cl)ccc5-n5cnnn5)cc(=O)n43)c(F)[nH]2)c(F)n1 [ONO‐7684]
- effect on INR [1]: did not significantly affect
- effect on PT [1]: did not significantly affect
- treatment‐related TEAE of lethargy (mild), subjects ([2]; Part A, 5 mg group): 16.7%
- treatment‐related TEAE of headache (moderate), subjects ([2]; Part A, 300 mg group): 16.7%
- Abdominal pain upper TEAE, subjects [2, 3]: 0 n (%)
- All TEAEs, subjects [2, 3]: 0 n (%)
- Dizziness TEAE, subjects [2, 3]: 0 n (%)
- Gonorrhoea TEAE, subjects [2, 3]: 0 n (%)
- Headache TEAE, subjects [2, 3]: 0 n (%)
- Lethargy TEAE, subjects [2, 3]: 0 n (%)
- Nasopharyngitis TEAE, subjects [2, 3]: 0 n (%)
- Nausea TEAE, subjects [2, 3]: 0 n (%)
- Pain TEAE, subjects [2, 3]: 0 n (%)
- Skin laceration TEAE, subjects [2, 3]: 0 n (%)
- Thrombocytopenia TEAE, subjects [2, 3]: 0 n (%)
- Abdominal pain upper TEAE, subjects [2, 4]: 0 n (%)
- All TEAEs, subjects [2, 4]: 1 (16.7) n (%)
- Dizziness TEAE, subjects [2, 4]: 0 n (%)
- Gonorrhoea TEAE, subjects [2, 4]: 0 n (%)
- Headache TEAE, subjects [2, 4]: 0 n (%)
- Lethargy TEAE, subjects [2, 4]: 1 (16.7)^b n (%)
- Nasopharyngitis TEAE, subjects [2, 4]: 1 (16.7) n (%)
- Nausea TEAE, subjects [2, 4]: 0 n (%)
- Pain TEAE, subjects [2, 4]: 0 n (%)
- Skin laceration TEAE, subjects [2, 4]: 0 n (%)
- Thrombocytopenia TEAE, subjects [2, 4]: 0 n (%)
- Abdominal pain upper TEAE, subjects [2, 5]: 1 (16.7) n (%)
- All TEAEs, subjects [2, 5]: 1 (16.7) n (%)
- Dizziness TEAE, subjects [2, 5]: 1 (16.7) n (%)
- Gonorrhoea TEAE, subjects [2, 5]: 0 n (%)
- Headache TEAE, subjects [2, 5]: 0 n (%)
- Lethargy TEAE, subjects [2, 5]: 0 n (%)
- Nasopharyngitis TEAE, subjects [2, 5]: 0 n (%)
- Nausea TEAE, subjects [2, 5]: 1 (16.7) n (%)
- Pain TEAE, subjects [2, 5]: 0 n (%)
- Skin laceration TEAE, subjects [2, 5]: 0 n (%)
- Thrombocytopenia TEAE, subjects [2, 5]: 0 n (%)
- Abdominal pain upper TEAE, subjects [2, 6]: 0 n (%)
- All TEAEs, subjects [2, 6]: 2 (33.3) n (%)
- Dizziness TEAE, subjects [2, 6]: 0 n (%)
- Gonorrhoea TEAE, subjects [2, 6]: 1 (16.7) n (%)
- Headache TEAE, subjects [2, 6]: 1 (16.7) n (%)
- Lethargy TEAE, subjects [2, 6]: 0 n (%)
- Nasopharyngitis TEAE, subjects [2, 6]: 0 n (%)
- Nausea TEAE, subjects [2, 6]: 0 n (%)
- Pain TEAE, subjects [2, 6]: 0 n (%)
- Skin laceration TEAE, subjects [2, 6]: 0 n (%)
- Thrombocytopenia TEAE, subjects [2, 6]: 0 n (%)
- Abdominal pain upper TEAE, subjects ([2]; Part A, single dose 80 mg, fed): 0 n (%)
- All TEAEs, subjects ([2]; Part A, single dose 80 mg, fed): 1 (16.7) n (%)
- Dizziness TEAE, subjects ([2]; Part A, single dose 80 mg, fed): 0 n (%)
- Gonorrhoea TEAE, subjects ([2]; Part A, single dose 80 mg, fed): 0 n (%)
- Headache TEAE, subjects ([2]; Part A, single dose 80 mg, fed): 1 (16.7) n (%)
- Lethargy TEAE, subjects ([2]; Part A, single dose 80 mg, fed): 0 n (%)
- Nasopharyngitis TEAE, subjects ([2]; Part A, single dose 80 mg, fed): 0 n (%)
- Nausea TEAE, subjects ([2]; Part A, single dose 80 mg, fed): 0 n (%)
- Pain TEAE, subjects ([2]; Part A, single dose 80 mg, fed): 0 n (%)
- Skin laceration TEAE, subjects ([2]; Part A, single dose 80 mg, fed): 0 n (%)
- Thrombocytopenia TEAE, subjects ([2]; Part A, single dose 80 mg, fed): 0 n (%)
- Abdominal pain upper TEAE, subjects [2, 7]: 0 n (%)
- All TEAEs, subjects [2, 7]: 0 n (%)
- Dizziness TEAE, subjects [2, 7]: 0 n (%)
- Gonorrhoea TEAE, subjects [2, 7]: 0 n (%)
- Headache TEAE, subjects [2, 7]: 0 n (%)
- Lethargy TEAE, subjects [2, 7]: 0 n (%)
- Nasopharyngitis TEAE, subjects [2, 7]: 0 n (%)
- Nausea TEAE, subjects [2, 7]: 0 n (%)
- Pain TEAE, subjects [2, 7]: 0 n (%)
- Skin laceration TEAE, subjects [2, 7]: 0 n (%)
- Thrombocytopenia TEAE, subjects [2, 7]: 0 n (%)
- Abdominal pain upper TEAE, subjects [2, 8]: 0 n (%)
- All TEAEs, subjects [2, 8]: 2 (33.3) n (%)
- Dizziness TEAE, subjects [2, 8]: 0 n (%)
- Gonorrhoea TEAE, subjects [2, 8]: 0 n (%)
- Headache TEAE, subjects [2, 8]: 2 (33.3)^a n (%)
- Lethargy TEAE, subjects [2, 8]: 0 n (%)
- Nasopharyngitis TEAE, subjects [2, 8]: 0 n (%)
- Nausea TEAE, subjects [2, 8]: 0 n (%)
- Pain TEAE, subjects [2, 8]: 0 n (%)
- Skin laceration TEAE, subjects [2, 8]: 0 n (%)
- Thrombocytopenia TEAE, subjects [2, 8]: 1 (16.7) n (%)
- All TEAEs, subjects [2, 9]: 2 (33.3) n (%)
- Bleeding time prolonged TEAE, subjects [2, 9]: 0 n (%)
